Key:
Selenomonas artemidis = conditions: only one of 45 compounds surveyed; cited from earlier work
A549 cells = assay: Proliferation of A549 nonsmall cell lung cancer cells (overexpress COX-2); assay type: cell-based, human; conditions: A549 overexpress COX-2
Source text: The antitumor efficacy of specifically formulated fish oil 30 diets was studied in human lung cancer A549 xenograft (over expression of COX-2) and H1299 xenograft (lack of COX-2 expression).
FIG. 17 illustrates the relative effect of WholeMega and two commercial fish oil products to inhibit proliferation of human A549 nonsmall cell lung cancer cells (top figure) and human H1299 nonsmall cell lung cancer cells (bottom figure). A549 cells overexpress COX-2, as many cancer cells are known to do. […] The A549 cells over-express COX-2 which normally results in an over-expression/production of PGE2. When provided with an alternate substrate, however, such as fish oil EPA, the resulting product is PGE3 rather than PGE2. […] Clearly, at least one structural feature unique to the Wholemega composition contributes an additional anti-tumor effect. One possibility is that that other oils in Wholemega (omega-5, omega-7 and omega-9 oils), that are not present in the other two fish oils, contribute to an additional inhibitory effect on the growth of the cancer cells. Another possibility would be the relative fractions of certain oils to one another. Yet another possibility would be the herbal oil component, e.g. SCE rosemary and SCE oregano) contribute an added inhibitory effect on the growth of the cancer cells. […]

beta-cell = conditions: 0.5 mmol/l, medium with 5.5, 11.1 or 33.3 mmol/l glucose, 4 days; cited from earlier work
gram-positive bacteria = conditions: purified cPA (>99%); cited from earlier work

## CCCCC=CCCCCCCCC(=O)O [myristoleic acid, 9-tetradecenoic acid]
Selenomonas artemidis
  inhibitory concentration towards S. artemidis: < 100 micrograms/ml

## CCCCC[C@H](O)/C=C/[C@H]1[C@H](O)CC(=O)[C@@H]1C/C=C\CCCC(=O)O [PGE2]
A549 cells
  effect on proliferation of A549 cells: slightly stimulates proliferation

## CC/C=C\C[C@H](O)/C=C/[C@H]1[C@H](O)CC(=O)[C@@H]1C/C=C\CCCC(=O)O [PGE3]
A549 cells
  effect on proliferation of A549 cells: inhibits proliferation

## CCCCCC/C=C\CCCCCCCC(=O)O [palmitoleic acid]
beta-cell
  beta-cell DNA fragmentation: did not affect

## CCCCCCCCC/C=C\CCCCC(=O)O [cPA, palmitoleic acid (C16:1delta6, cPA)]
gram-positive bacteria
  minimal inhibitory concentration (MIC): 10 to 20 µg/mL
